Data reported in patent publication US10604512B2, “3-(1H-indol-2-yl)-1H-indazoles and therapeutic uses thereof” (Samumed, LLC, priority 2015, dated 2020).

What was measured:
Format in all cases: cell-based
SW480 colon cancer cells = test: Cell viability assay (CellTiter-Blue) in SW480 colon cancer cells; conditions: Homo sapiens, 96 h, four days; for inhibition at 10 µM: given where EC50 >10 μM, read-out: percent inhibition at 10 μM; for EC50: CellTiter-Blue
Outline: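 SW480 colon cancer cells (~2×10^3/well) exposed to 8-point 1:3 dilutions from 10 μM to 0.0045 μM for four days at 37 °C/5% CO2. Viability read by resazurin (CellTiter-Blue) fluorescence after ~3 h, Ex 560/Em 590 nm. EC50 from non-linear regression; percent inhibition at 10 μM given when EC50 >10 μM.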

[1] = tested on: Primary human fibroblasts derived from IPF patients (LL29 cells) treated with TGF-β1; test: Inhibition of the fibrotic process: αSMA staining in TGF-β1-treated primary human fibroblasts from IPF patients (LL29 cells); conditions: Fibroblast, 96 h; for EC50: % αSMA-positive LL29 cells, TGF-β1 20 ng/mL, 4 days
Outline: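 LL29 IPF-patient fibroblasts in 1% FBS stimulated with TGF-β1 (20 ng/mL) and compound (10 μM–1.87 nM, 0.1% DMSO) for 4 days at 37 °C. SYTOX-positive cells excluded; % αSMA-positive cells imaged, normalized to TGF-β1/DMSO wells; EC50 by nonlinear regression, else % inhibition at 10 μM.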

IL-6 = test: Inhibition of IL-6 in LPS-stimulated THP-1 human monocyte cells (HTRF); conditions: for EC50: IL-6 inhibition, LPS-stimulated THP-1 cells, HTRF; for inhibition at 10 µM: THP-1, printed beside >10 μM EC50, top concentration 10 μM, meaning not given, read-out: percentage in parentheses after EC50 >10
Outline: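 THP-1 cells serum-reduced (1% FBS, 24 h), then 5000 cells/well preincubated 2 h with compound (10-point 1:3 series from 10 μM, 0.1% DMSO) before 500 ng/mL LPS for 22 h at 37 °C. Secreted IL-6 quantified by HTRF 665/620 ratio; DMSO-normalised duplicates fitted to four-parameter EC50; above 10 μM, % inhibition at 10 μM given.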

In the case of `Fc1cccc(-c2cccc3[nH]c(-c4n[nH]c5ccc(-c6ccncc6)cc45)cc23)c1` [Compound 18, 3-(4-(3-Fluorophenyl)-1H-indol-2-yl)-5-(pyridin-4-yl)-1H-indazole], the inhibition at 10 µM (SW480 colon cancer cells) is reported as 10.2%, the EC50 (SW480 colon cancer cells) is reported as greater than 10 µM and the EC50 [1] is reported as 5.55 µM. It also gave an EC50 (IL-6) of 0.031 µM.
`CC(C)(C)CC(=O)Nc1cncc(-c2ccc3[nH]nc(-c4cc5c(-c6ccsc6)cccc5[nH]4)c3c2)c1` [Compound 296, 3,3-Dimethyl-N-(5-(3-(4-(thiophen-3-yl)-1H-indol-2-yl)-1H-indazol-5-yl)pyridin-3-yl)butanamide] was tested, and the EC50 (SW480 colon cancer cells) was 0.97 µM, the EC50 [1] was greater than 10 µM and the inhibition at 10 µM ([1]; at 10 μM, given where EC50 >10 μM, αSMA, LL29 cells, TGF-β1, 4 days, read-out: percent inhibition at 10 μM) was 21%. It also gave an EC50 (IL-6) greater than 10 µM and an inhibition at 10 µM (IL-6) of 31.6%.
`O=C(Nc1cncc(-c2ccc3[nH]nc(-c4cc5c(-c6ccsc6)cccc5[nH]4)c3c2)c1)C1CCCCC1` [Compound 303, N-(5-(3-(4-(Thiophen-3-yl)-1H-indol-2-yl)-1H-indazol-5-yl)pyridin-3-yl) cyclohexanecarboxamide] showed an inhibition at 10 µM (SW480 colon cancer cells) of 15%, an EC50 (SW480 colon cancer cells) greater than 10 µM and an EC50 [1] of 2.79 µM. The EC50 (IL-6) was greater than 10 µM and the inhibition at 10 µM (IL-6) was 43.9%.
`Nc1cncc(-c2ccc3[nH]nc(-c4cc5c(-c6ccoc6)cccc5[nH]4)c3c2)c1` [Compound 311, 5-(3-(4-(Furan-3-yl)-1H-indol-2-yl)-1H-indazol-5-yl)pyridin-3-amine] showed an EC50 (SW480 colon cancer cells) of 0.294 µM, an EC50 [1] of 5.04 µM and an EC50 (IL-6) of 0.519 µM.
`O=C(Cc1ccccc1)Nc1cncc(-c2ccc3[nH]nc(-c4cc5c(-c6ccoc6)cccc5[nH]4)c3c2)c1` [Compound 318, N-(5-(3-(4-(Furan-3-yl)-1H-indol-2-yl)-1H-indazol-5-yl)pyridin-3-yl)-2-phenylacetamide] was tested, and the inhibition at 10 µM (SW480 colon cancer cells) was 31.9%, the EC50 (SW480 colon cancer cells) was greater than 10 µM and the EC50 [1] was 0.844 µM. For the same compound, the EC50 (IL-6) was 0.304 µM.
For `c1cc(-c2ccoc2)c2cc(-c3n[nH]c4ccc(-c5cncc(CNCC6CCCC6)c5)cc34)[nH]c2c1` [Compound 333, 1-Cyclopentyl-N-((5-(3-(4-(furan-3-yl)-1H-indol-2-yl)-1H-indazol-5-yl)pyridin-3-yl)methyl)methanamine], the inhibition at 10 µM (SW480 colon cancer cells) was 19.1%, the EC50 (SW480 colon cancer cells) was greater than 10 µM and the EC50 [1] was 3.74 µM. The EC50 (IL-6) was 7.58 µM.
